Source: US20050074879A1, “Antisense oligonucleotide modulation of STAT3 expression” (priority 2000, published 2005)
Oligonucleotides are written 5' to 3', each unit as a sugar letter and its base; * is a phosphorothioate linkage, no mark a phosphodiester; rarer units and linkages stand in square brackets, end groups in braces. Plain capitals give the bases only. e = 2'-O-(2-methoxyethyl) (MOE); [5mC] = 5-methylcytosine; d = 2'-deoxy (DNA)

Key:
Assay type in all cases: cell-based
[1] = tested on: Mouse STAT3 mRNA; test: Inhibition of mouse STAT3 mRNA expression in BCL1 cells (electroporation; RNase protection/Northern blot); design: % mRNA INHIBITION: dose or concentration left out as unconfirmed; settings: BCL1 cells electroporated with oligonucleotide, RNA collected 24 hours later; for % mRNA EXPRESSION: control 100%
Method: The B lymphoma cell line, BCL1 was obtained from ATCC (Rockville, Md.). BCL1 cells were cultured in RPMI 1640 medium.
BCL1 cells (5×10^6 cells in PBS) were transfected with oligonucleotides by electroporation, at 200V, […]. using a BTX Electro Cell Manipulator 600 (Genetronics, San Diego, Calif.). For an initial screen, BCL1 were electroporated with […] oligonucleotide and RNA collected 24 hours later. Controls without oligonucleotide were subjected to the same electroporation conditions.
Total cellular RNA was isolated using the RNEASY7 kit (Qiagen, Santa Clarita, Calif.). RNAse protection experiments were conducted using RIBOQUANT™ kits and template sets according to the manufacturer's instructions (Pharmingen, San Diego, Calif.). Northern blotting was performed as described in Chiang, M-Y. et al. (J. Biol. Chem., 1991, 266, 18162-18171), using a rat cDNA probe prepared by Xho I/Sal I restriction digest of psvsport-1 plasmid (ATCC, Rockville, Md.). mRNA levels were quantitated using a PhosphorImager (Molecular Dynamics, Sunnyvale, Calif.).

[2] = tested on: Human STAT3 mRNA; test: Human STAT3 mRNA dose response in T-24 cells, real-time PCR with PPS 199 (Table 18); settings: 16 hours, − decrease, + increase relative to untreated control
Text: The transitional cell bladder carcinoma cell line T-24 was obtained from the American Type Culture Collection (ATCC) (Manassas, Va.). T-24 cells were routinely cultured in complete McCoy's 5A basal media (Gibco/Life Technologies, Gaithersburg, Md.) supplemented with 10% fetal calf serum (Gibco/Life Technologies, Gaithersburg, Md.), penicillin 100 units per mL, and streptomycin 100 micrograms per mL (Gibco/Life Technologies, Gaithersburg, Md.). Cells were routinely passaged by trypsinization and dilution when they reached 90% confluence. Cells were seeded into 96-well plates (Falcon-Primaria #3872) at a density of 7000 cells/well for use in RT-PCR analysis.
Control oligonucleotides used were ISIS 129695 ([…], SEQ ID NO: 391), ISIS 129694 ([…] SEQ ID NO: 392), ISIS 129690 ([…] SEQ ID NO: 393), ISIS 129686 ([…] SEQ ID NO: 394), ISIS 116847 ([…], SEQ ID NO: 395) and ISIS 113529 ([…] SEQ ID NO: 396). These are universal scrambled control oligonucleotides.
(§1) T-24 cells were treated with 18.75, 37.5, 75, or 150 nM of oligonucleotide mixed with 3 ug/mL LIPOFECTIN per 100 nM oligonucleotide as described by other examples herein. Untreated cells served as controls. Following 16 hours of treatment, RNA was prepared from cells for subsequent real-time PCR analysis.
Human STAT3 mRNA expression levels were quantitated by real-time PCR using primer probe set PPS 199 and gene target quantities were normalized using Ribogreen as described in other examples herein. A “−” or “+” designation indicates a decrease or increase of STAT 3 mRNA expression, respectively, relative to untreated control cells.

[3] = tested on: Human STAT3 mRNA; test: Inhibition of human STAT3 mRNA levels in A549 cells, 75 nM, real-time PCR (Table 13); settings: 75 nM oligonucleotide with LIPOFECTIN, real-time PCR PPS 199, percent inhibition relative to untreated control cells, average of 2 experiments
In short: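 A549 cells at 65–75% confluency were transfected in duplicate with 75 nM oligonucleotide plus […] Lipofectin for 4–7 h at 37° C and harvested 16–24 h later. STAT3 mRNA was quantified by real-time RT-PCR with primer-probe set PPS 199 and normalized to RiboGreen total RNA. Inhibition is relative to untreated controls.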

[4] = tested on: Human STAT3 mRNA; test: Human STAT3 mRNA dose response in T-24 cells, real-time PCR with PPS 2033 (Table 19); settings: 16 hours, − decrease, + increase relative to untreated control
Method: The dose-response was repeated in T-24 cells and gene target quantities were measured using a different primer-probe set, called PPS 2033 herein. PPS 2033 comprises probes and primers to human STAT3 were designed to hybridize to a human STAT3 sequence, using published sequence information (incorporated herein as SEQ ID NO: XXX). For PPS 2033 the PCR primers were: forward primer: GAGGCCCGCCCAACA (SEQ ID NO: 397) reverse primer: […] (SEQ ID NO: 398) and the PCR probe was: FAM-CTGCCTAGATCGGC-TAMRA (SEQ ID NO: 399) where FAM is the fluorescent reporter dye and TAMRA is the quencher dye. Gene target quantities obtained by real time RT-PCR are normalized by quantifying total RNA using RiboGreen™ (Molecular Probes, Inc. Eugene, Oreg.). Control oligonucleotides used were ISIS 129695 (SEQ ID NO: 391), ISIS 129694 (SEQ ID NO: 392), ISIS 129690 (SEQ ID NO: 393), ISIS 129686 (SEQ ID NO: 394), ISIS 116847 (SEQ ID NO: 395) and ISIS 113529 (SEQ ID NO: 396).
as §1
Human STAT3 mRNA expression levels were quantitated by real-time PCR using primer probe set PPS 2033 and gene target quantities were normalized using Ribogreen as described in other examples herein. A “−” or “+” designation indicates a decrease or increase of STAT 3 mRNA expression, respectively, relative to untreated control cells.

Substance | % mRNA INHIBITION [1] [%] | % mRNA EXPRESSION [1] [%] | Percent change of STAT3 expression using PPS 199 ([2]; 18.75 nM oligonucleotide) [%] | Percent change of STAT3 expression using PPS 199 ([2]; 37.5 nM oligonucleotide) [%] | Percent change of STAT3 expression using PPS 199 ([2]; 75 nM oligonucleotide) [%] | Percent change of STAT3 expression using PPS 199 ([2]; 150 nM oligonucleotide) [%] | % Inhib (inhibition of human STAT 3 mRNA levels) [3] [%] | Percent change of STAT3 expression using PPS 2033 ([4]; 18.75 nM oligonucleotide) [%] | Percent change of STAT3 expression using PPS 2033 ([4]; 37.5 nM oligonucleotide) [%] | Percent change of STAT3 expression using PPS 2033 ([4]; 75 nM oligonucleotide) [%] | Percent change of STAT3 expression using PPS 2033 ([4]; 150 nM oligonucleotide) [%]
17146 (antisense eA*eT*e[5mC]*eA*eA*dT*dG*dA*dA*dT*dC*dT*dA*dA*dA*eG*eT*eG*e[5mC]*eG) [compound 17146] | 9 | 91 |  |  |  |  |  |  |  |  | 
17147 (antisense eT*e[5mC]*eA*eG*e[5mC]*dA*dC*dC*dT*dT*dC*dA*dC*dC*dG*eT*eT*eA*eT*eT) [compound 17147] | 30 | 70 |  |  |  |  |  |  |  |  | 
17149 (antisense eG*eG*eT*eT*eT*dC*dA*dG*dC*dT*dC*dC*dT*dC*dA*e[5mC]*eA*eT*eG*eG) [compound 17149] | 30 | 70 |  |  |  |  |  |  |  |  | 
17150 (antisense eT*eA*eA*eA*eA*dA*dA*dA*dA*dA*dA*dA*dT*dC*dT*eG*eG*eA*eA*e[5mC]) [compound 17150] | 5 | 95 |  |  |  |  |  |  |  |  | 
17151 (antisense eA*eA*eG*eA*eT*dA*dG*dC*dA*dG*dA*dA*dG*dT*dA*eG*eG*eA*eA*eA) [compound 17151] | 8 | 92 |  |  |  |  |  |  |  |  | 
337284 (antisense e[5mC]*eT*e[5mC]*e[5mC]*eT*dT*dG*dA*d[5mC]*dT*d[5mC]*dT*dT*dG*dA*eG*eG*eG*eT*eT) [compound 337284] |  |  | −49 | −64 | −69 | −72 | 91 | −49 | −62 | −66 | −68
337293 (antisense e[5mC]*eA*eG*e[5mC]*e[5mC]*dA*dG*d[5mC]*dT*d[5mC]*d[5mC]*dT*d[5mC]*dG*dT*e[5mC]*e[5mC]*eG*eT*eG) [compound 337293] |  |  | −26 | −49 | −66 | −79 | 92 | −26 | −49 | −67 | −79
337303 (antisense eA*eG*e[5mC]*eT*eG*dA*dT*dA*dA*dT*dT*d[5mC]*dA*dA*d[5mC]*eT*e[5mC]*eA*eG*eG) [compound 337303] |  |  | −44 | −61 | −69 | −72 | 85 | −47 | −59 | −69 | −71
337344 (antisense eA*eT*e[5mC]*e[5mC]*eA*dT*dG*dA*dT*d[5mC]*dT*dT*dA*dT*dA*eG*e[5mC]*e[5mC]*e[5mC]*eA) [compound 337344] |  |  | −27 | −47 | −63 | −77 | 90 | −17 | −37 | −60 | −76
337384 (antisense eA*eT*eA*e[5mC]*eA*dG*dA*dA*dA*dG*dG*d[5mC]*dT*dA*dT*eG*e[5mC]*eT*eG*eA) [compound 337384] |  |  | −40 | −55 | −71 | −80 | 89 | −41 | −59 | −69 | −80
